pEC50: −log10 of the molar value. “And” between values parts separate entries of the source, which are not always exact repeats. Equal entries are not always repeated.
Experiments:
SNU449-TM4SF5 cells = experiment: Cell migration tracking, TM4SF5-expressing cells; format: cell-based, human; conditions: SNU449-TM4SF5, 2.5, 5.0, or 10.0 µM, 17 hours (FIG. 7)
Description: SNU449-TM4SF5 cells, which were made to express TM4SF5 using a lentivirus in human hepatocellular carcinoma cells SNU449, and SNU449-EV cells, into which a control vector (empty vector, EV) was injected so that TM4SF5 is not expressed, were seeded to a density of 40% in 8-chamber plates (Thermo) coated with 10 µg/ml collagen type 1 (Advanced Biomatrix). Three hours after seeding in a cell culture environment containing 10% FBS (GenDEPOT), DMSO and drugs were treated in the culture medium at the indicated concentrations. After treating with the drugs, the positions of the same moving cells were repeatedly photographed using a microscope every 20 minutes for 17 hours. The cells were photographed using an IX81-ZDC microscope (Olympus) equipped with a UPLSAPO 10X2, NA0.4 Super Apochromatic objective lens (Olympus). While photographing the cells, a general cell culture environment was created by constantly injecting 5% CO2 at a rate of 40-60 mL/min at 37°C using a controller (Live Cell Instrument). The migration distance and path of the cells were calculated using the "Track Object" application of MetaMorph software (Molecular Devices LLC). […]

[1] = molecular target: T1, HA-TM4SF5 obtained from Huh7KO-HA-TM4SF5 (Homo sapiens, UniProt O14894); experiment: Binding of 14C-labelled ST-5-002 to pulled-down HA-TM4SF5
T1 construct: expressed in transfected cells; host or cells: Huh7KO (TM4SF5 knockout Huh7) stably infected with pBabe-HA-TM4SF5 retrovirus; captured with anti-HA antibody
T1 sequence (O14894 1-197): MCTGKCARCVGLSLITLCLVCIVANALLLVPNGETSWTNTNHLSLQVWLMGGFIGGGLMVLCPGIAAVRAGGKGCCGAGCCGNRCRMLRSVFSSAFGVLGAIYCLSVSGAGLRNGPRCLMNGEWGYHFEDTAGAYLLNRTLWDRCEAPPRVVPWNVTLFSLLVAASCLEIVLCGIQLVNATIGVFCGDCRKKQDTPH
Description: For Huh7KO cells, stable cell lines were established by infecting with a retrovirus inducing the expression of pBabe-HA-EV or pBabe-HA-TM4SF5. Cell extracts were obtained, and extracts containing 0.2 or 0.25 mg of protein were reacted with an anti-HA antibody and HA-tagged TM4SF5, or with streptavidin agarose resin for Strep-PD-L1 or Strep-TM4SF5 at 4°C for 2 hours for pulldown. Subsequently, in the presence or absence of cold ST-5-002 (400 µM), the samples were treated with ^14C-labelled ST-5-002 (10 or 25 µM) and reacted at 4°C for 1 hour, after which radioactive isotope values were repeatedly measured using a TriCarb scintillation counter (PerkinElmer, Waltham, MA).
After culturing HEK293FT cells transfected with Strep-EV or Strep-TM4SF5 expression vectors, or Huh7KO cells stably expressing pBabe-HA-EV or pBabe-HA-TM4SF5, cell extracts were obtained. […] The pulled-down proteins were treated with ^14C-labelled ST-5-002 at various concentrations (10 nM, 100 nM, 1 µM, 5 µM, 10 µM, 50 µM) and reacted at 4°C for 1 hour, after which radioactive isotope values were repeatedly measured using a TriCarb scintillation counter (PerkinElmer, Waltham, MA). The EC50 was calculated by normalizing the average radioactive isotope value of TM4SF5 obtained through the measurements by dividing it by the average value of EV. […]

With `COc1ccc(-c2cc(-c3ccc(NC(C)=O)cc3)no2)cc1` [ST-2-001, N-(4-(5-(4-methoxyphenyl)isoxazole-3-yl)phenyl)acetamide] the “migration of the cells” value (SNU449-TM4SF5 cells) was “decreased according to the treatment with ST-2-001 in a concentration-dependent manner”.

`Cc1ccc(C(=O)Nc2ccc(-c3cc(-c4ccc(O)cc4)no3)cc2)cc1` [ST-5-002, N-(4-(3-(4-hydroxyphenyl)isoxazole-5-yl)phenyl)-4-methylbenzamide] was tested, and the pEC50 ([1]; 14C-labelled ST-5-002, HA-TM4SF5, 4°C, 1 hour (FIG. 19b)) was 6.07 and 6.06 and the “binding of 14C-labelled ST-5-002 to HA-TM4SF5” value ([1]; simultaneous treatment with cold ST-5-002 (400 µM) (FIG. 19b)) was “decreased”.
